# Target: T1, MBP-ANLRP3-HIS (Homo sapiens, UniProt Q96P20, K142A)
# T1 construct: made in house; host or cells: Sf21 (IPLB-Sf21-AE) insect cells
# Assay: ATPase activity, ADP-Glo Kinase Assay (Promega)
# Format: biochemical
# Settings: read-out: Km of ATP
# Description: Peptide mass fingerprinting confirmed the protein identity while intact mass analysis confirmed the overall integrity of the protein and indicated the loss of the amino-terminal methionine. The theoretical molecular weight and isoelectric point (pI) of MBP-NLRP3-HIS are 145.30 kDa and 6.2, respectively. […] MBP-ANLRP3-HIS protein functionality was assessed based on ATPase activity using an ADP-Glo Kinase Assay (Promega). […] This protein construct was shown via its ATPase activity to have acceptable stability up to 2 hours in conditions mimicking one round of selection in the DEL screen.
smiles,measurement,value
Nc1ncnc2c1ncn2[C@@H]1O[C@H](COP(=O)(O)OP(=O)(O)OP(=O)(O)O)[C@@H](O)[C@H]1O [ATP],Km,3.08 µM
